Source: patent US8497255B2, “Phosphonic acids as S1P receptor modulators” (Allergan, Inc., priority 2010, dated 2013)

Target: T1, human S1P1 receptor (Homo sapiens, UniProt P21453)
T1 construct: expressed in transfected cells; membranes used
Test: GTP γ35S binding assay for S1P1 activity
Type: biochemical
Settings: activity potency, S1P1 receptor from GTP γ35S binding; membranes, 30 min at 25° C.
Description: Compounds were synthesized and tested for S1P1 activity using the GTP γ^35S binding assay. These compounds may be assessed for their ability to activate or block activation of the human S1P1 receptor in cells stably expressing the S1P1 receptor.
GTP γ^35S binding was measured in the medium containing (mM) HEPES 25, pH 7.4, MgCl2 10, NaCl 100, dithitothreitol 0.5, digitonin 0.003%, 0.2 nM GTP γ^35S, and 5 μg membrane protein in a volume of 150 μl. Test compounds were included in the concentration range from 0.08 to 5,000 nM unless indicated otherwise. Membranes were incubated with 100 μM 5′-adenylylimmidodiphosphate for 30 min, and subsequently with 10 μM GDP for 10 min on ice. Drug solutions and membrane were mixed, and then reactions were initiated by adding GTP γ^35S and continued for 30 min at 25° C. Reaction mixtures were filtered over Whatman GF/B filters under vacuum, and washed three times with 3 mL of ice-cold buffer (HEPES 25, pH7.4, MgCl2 10 and NaCl 100). Filters were dried and mixed with scintillant, and counted for ^35S activity using a β-counter. Agonist-induced GTP γ^35S binding was obtained by subtracting that in the absence of agonist. Binding data were analyzed using a non-linear regression method. In case of antagonist assay, the reaction mixture contained 10 nM S1P in the presence of test antagonist at concentrations ranging from 0.08 to 5000 nM.

T1 sequence (P21453 whole entry): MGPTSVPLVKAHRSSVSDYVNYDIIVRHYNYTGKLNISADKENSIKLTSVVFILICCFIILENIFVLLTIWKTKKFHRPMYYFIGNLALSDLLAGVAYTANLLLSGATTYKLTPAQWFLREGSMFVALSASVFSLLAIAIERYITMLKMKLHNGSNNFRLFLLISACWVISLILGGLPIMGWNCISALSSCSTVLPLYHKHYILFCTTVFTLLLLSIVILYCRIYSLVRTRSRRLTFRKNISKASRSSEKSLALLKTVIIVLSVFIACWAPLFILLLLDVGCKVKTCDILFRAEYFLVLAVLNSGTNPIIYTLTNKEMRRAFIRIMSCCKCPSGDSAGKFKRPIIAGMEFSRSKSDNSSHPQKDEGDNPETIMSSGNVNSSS

**Q.** Which EC50 does the source give for CC(C)Oc1ccc(-c2nc(-c3ccc(CNCCCP(=O)(O)O)cc3)no2)cc1C(F)(F)F [Compound 1, {3-[(4-{5-[4-isopropoxy-3-(trifluoromethyl)phenyl]-1,2,4-oxadiazol-3-yl}benzyl)amino]propyl}phosphonic acid] here?
**A.** 3.14 nM

**Q.** How did the EC50 turn out when CC(C)Oc1ccc(-c2nc(-c3ccc(CNCCCP(=O)(O)O)cc3)no2)cc1Br [Compound 2, [3-({4-[5-(3-bromo-4-isopropoxyphenyl)-1,2,4-oxadiazol-3-yl]benzyl}amino)propyl]phosphonic acid] was run?
**A.** 3.1 nM

**Q.** CC(C)Cc1ccc(-c2nc(-c3ccc(CNCCCP(=O)(O)O)cc3)no2)cc1 [Compound 3, (3-{4-[5-(4-Isobutyl-phenyl)-[1,2,4]oxadiazol-3-yl]-benzylamino}-propyl)-phosphonic acid] was tested. Which EC50 did it give?
**A.** 1.78 nM
